We go through 16 molecules from patent publication US20230141603A1, “BENZODIAZEPINE DERIVATIVES AS GABA A GAMMA1 PAM” (Hoffmann-La Roche Inc., priority 2021, published 2023).

In this experiment the target is T1, h-GABAA α1β3γ2 (Homo sapiens, UniProt P14867+P18507).
T1 construct: expressed in transfected cells; host or cells: HEK293F cells, membranes
The experiment can be described thus: Radioligand binding assay, [3H]Flumazenil competition, HEK293F membranes. The following applies: for γ2/γ1 Selectivity Ratio: Ki α1β3γ2 (nM)/Ki α2β2γ1 (nM); for LogSel: Log[Ki α1β3γ2 (nM)/Ki α2β2γ1 (nM)]. The method, boiled down:
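[3H]Flumazenil competition binding on membranes from HEK293F cells transiently expressing human α1β3γ2 receptors. Incubation to equilibrium for 1 h at 4 °C, then filtration and scintillation counting. Ki is the mean of two determinations.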

SMILES strings stand for the structures.

On to `Cc1ccc2c(c1Cl)C(c1c(F)cccc1F)=NCc1nnc(-c3cccnn3)n1-2` [Example 48, 7-chloro-6-(2,6-difluorophenyl)-8-methyl-1-pyridazin-3-yl-4H-[1,2,4]triazolo[4,3-a][1,4]benzodiazepine], for which the affinity corresponds to a Ki of 952 nM. Besides, under “Table 1”, the “γ2/γ1 Selectivity Ratio” value was 114.1 and the LogSel is reported as 2.06.
For the molecule `OCc1nnc2n1-c1ccc(Br)c(Cl)c1C(c1c(F)cccc1F)=NC2` [Example 33, [8-bromo-7-chloro-6-(2,6-difluorophenyl)-4H-[1,2,4]triazolo[4,3-a][1,4]benzodiazepin-1-yl]methanol], affinity was put at a Ki of 232 nM. Also, where the note is “Table 1”, the “γ2/γ1 Selectivity Ratio” value was 18.2 and the LogSel is listed as 1.26.
On the same counts, the results for `Fc1cccnc1C1=NCc2nnc(-c3ccncn3)n2-c2ccc(C(F)(F)F)c(Cl)c21` [Example 69, 7-chloro-6-(3-fluoro-2-pyridyl)-1-pyrimidin-4-yl-8-(trifluoromethyl)-4H-[1,2,4]triazolo[4,3-a][1,4]benzodiazepine] are 10600 nM, 166.3 and 2.22.
As for `Fc1cccc(F)c1C1=NCc2nnc(-c3cccnn3)n2-c2ccc(I)c(Cl)c21` [Example 39, 7-chloro-6-(2,6-difluorophenyl)-8-iodo-1-pyridazin-3-yl-4H-[1,2,4]triazolo[4,3-a][1,4]benzodiazepine], the affinity corresponds to a Ki of 360 nM. Also, where the note is “Table 1”, the “γ2/γ1 Selectivity Ratio” value is given as 85.8 and the LogSel amounted to 1.93.
Taken in the same sequence, the figures for `Fc1cccnc1C1=NCc2nnc(C3CC3)n2-c2ccc(Br)c(Cl)c21` [Example 77, 8-bromo-7-chloro-1-cyclopropyl-6-(3-fluoro-2-pyridyl)-4H-[1,2,4]triazolo[4,3-a][1,4]benzodiazepine] were 716 nM, 36.6 and 1.56.
On the same counts, the results for `Fc1cccnc1C1=NCc2nnc(-c3ccncn3)n2-c2ccc(Br)c(Cl)c21` [Example 46, 8-bromo-7-chloro-6-(3-fluoro-2-pyridyl)-1-pyrimidin-4-yl-4H-[1,2,4]triazolo[4,3-a][1,4]benzodiazepine] are 1160 nM, 45.8 and 1.66.
Taken in the same sequence, the figures for `Cc1nnc2n1-c1ccc(C(F)(F)F)c(Cl)c1C(c1ncccc1F)=NC2` [Example 78, 7-chloro-6-(3-fluoro-2-pyridyl)-1-methyl-8-(trifluoromethyl)-4H-[1,2,4]triazolo[4,3-a][1,4]benzodiazepine] were 4440 nM, 87.4 and 1.94.
Regarding `Cn1cc(-c2nnc3n2-c2ccc(C(F)(F)F)c(Cl)c2C(c2ncccc2F)=NC3)cn1` [Example 70, 7-chloro-6-(3-fluoro-2-pyridyl)-1-(1-methylpyrazol-4-yl)-8-(trifluoromethyl)-4H-[1,2,4]triazolo[4,3-a][1,4]benzodiazepine], the Ki – broadly, the dissociation constant of the complex between target and ligand, obtained from inhibition or displacement – was determined as 5980 nM. For the setting “Table 1”, the “γ2/γ1 Selectivity Ratio” value is listed as 144.5 and the LogSel is 2.16.
For `Cc1nnc2n1-c1ccc(Br)c(Cl)c1C(c1ncccc1F)=NC2` [Example 24, 8-bromo-7-chloro-6-(3-fluoro-2-pyridyl)-1-methyl-4H-[1,2,4]triazolo[4,3-a][1,4]benzodiazepine], the affinity, expressed as Ki, was 608 nM. For the same molecule, under “Table 1”, the “γ2/γ1 Selectivity Ratio” value amounted to 25.0 and the LogSel stood at 1.40.
Taken in the same sequence, the figures for `Cl.NCc1nnc2n1-c1ccc(Br)c(Cl)c1C(c1c(F)cccc1F)=NC2` [Example 36, [8-bromo-7-chloro-6-(2,6-difluorophenyl)-4H-[1,2,4]triazolo[4,3-a][1,4]benzodiazepin-1-yl]methanamine hydrochloride] were 180 nM, 21.2 and 1.33.
As to `Fc1cccc(F)c1C1=NCc2nnc(-c3cccnn3)n2-c2ccc(Br)c(Br)c21` [Example 42, 7,8-dibromo-6-(2,6-difluorophenyl)-1-pyridazin-3-yl-4H-[1,2,4]triazolo[4,3-a][1,4]benzodiazepine], the Ki worked out at 243 nM. Also, for the setting “Table 1”, the “γ2/γ1 Selectivity Ratio” value is 44.2 and the LogSel is 1.65.
Taken in the same sequence, the figures for `Fc1cccc(F)c1C1=NCc2nncn2-c2ccc(Cl)c(Cl)c21` [Example 15, 7,8-dichloro-6-(2,6-difluorophenyl)-4H-[1,2,4]triazolo[4,3-a][1,4]benzodiazepine] were 249 nM, 28.7 and 1.46.
Molecule `Cc1nnc2n1-c1ccc(Br)c(Cl)c1C(c1c(F)cccc1F)=NC2` [Example 1, 8-bromo-7-chloro-6-(2,6-difluorophenyl)-1-methyl-4H-[1,2,4]triazolo[4,3-a][1,4]benzodiazepine] had a Ki of 146 nM. Also, under “Table 1”, the “γ2/γ1 Selectivity Ratio” value is 18.3 and the LogSel was determined as 1.26. Besides, for the setting “Table 3”, the “γ2/γ1 Selectivity Ratio” value is given as 18.3 and the LogSel turned out to be 1.3.
Molecule `Clc1cccnc1C1=NCc2nnc(-c3ccncn3)n2-c2ccc(Br)c(Cl)c21` [Example 44, 8-bromo-7-chloro-6-(3-chloro-2-pyridyl)-1-pyrimidin-4-yl-4H-[1,2,4]triazolo[4,3-a][1,4]benzodiazepine] showed a Ki of 276 nM. Under “Table 1”, the “γ2/γ1 Selectivity Ratio” value is 28.6 and the LogSel stood at 1.46.
`Fc1cccc(F)c1C1=NCc2nncn2-c2ccc(I)c(Cl)c21` [Example 34, 7-chloro-6-(2,6-difluorophenyl)-8-iodo-4H-[1,2,4]triazolo[4,3-a][1,4]benzodiazepine] returned a Ki of 161 nM. Under “Table 1”, the “γ2/γ1 Selectivity Ratio” value came to 15.9 and the LogSel amounted to 1.20.
The molecule `Fc1ccccc1C1=NCc2nnc(-c3cccnn3)n2-c2ccc(Cl)c(Cl)c21` [Example 10, 7,8-dichloro-6-(2-fluorophenyl)-1-pyridazin-3-yl-4H-[1,2,4]triazolo[4,3-a][1,4]benzodiazepine] returned a Ki of 645 nM. Moreover, for the setting “Table 1”, the “γ2/γ1 Selectivity Ratio” value amounted to 67.7 and the LogSel was determined as 1.83.
